Reference: ChEMBL document CHEMBL1201862, “PubChem BioAssay data set” (2004)
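Step 1: Grow cells in 96-well plates. Step 2: Expose to compound for 48 hours at 5 concentrations. Step 3: Interpolate endpoints linearly; if unreached, use highest concentration. Abbreviation: GI50, concentration required for 50% inhibition of growth.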 Calls of active or inactive are those of the source. Cut-off read from the data, not from the text of the source: active = GI50 up to about 1.1 µM and inactive = higher.

Columns and labels:
Assay in all cases: NCI tumour cell line growth inhibition, 48 h
[1] = test system: SNB-19
[2] = test system: 786-0
[3] = test system: HCT-116
[4] = test system: NCI-H522
[5] = test system: HOP-92
[6] = test system: UACC-257
[7] = test system: HT-29
[8] = test system: A549
[9] = test system: RXF 393
[10] = test system: ACHN
[11] = test system: Malme-3M
[12] = test system: OVCAR-3
[13] = test system: EKVX
[14] = test system: NCI-H23
[15] = test system: UO-31
[16] = test system: SW-620
[17] = test system: U-251
[18] = test system: OVCAR-5
[19] = test system: SNB-75
[20] = test system: HCT-15

COc1cc(/C=C2\NC(=O)C(Cc3cc(OC)c(OC)c(C)c3OC)N(C(C)=O)C2=O)c(OC)c(C)c1OC (stereo not drawn)
GI50 [1]: > 100 µM (inactive) | GI50 [2]: > 100 µM (inactive) | GI50 [3]: > 100 µM (inactive) | GI50 [4]: 21.8 µM (inactive) | GI50 [5]: 29.3 µM (inactive) | GI50 [6]: > 100 µM (inactive) | GI50 [7]: > 100 µM (inactive) | GI50 [8]: > 100 µM (inactive) | GI50 [9]: 95.5 µM (inactive) | GI50 [10]: > 100 µM (inactive) | GI50 [11]: 83.6 µM (inactive) | GI50 [12]: > 100 µM (inactive) | GI50 [13]: 43.7 µM (inactive) | GI50 [14]: > 100 µM (inactive) | GI50 [15]: 85.1 µM (inactive) | GI50 [16]: > 100 µM (inactive) | GI50 [17]: > 100 µM (inactive) | GI50 [18]: > 100 µM (inactive) | GI50 [19]: > 100 µM (inactive)

CCOC(=O)CCC(C(=O)OCC)n1nnc2ccc(Nc3c(C)[n+]([O-])c4cc(Cl)ccc4[n+]3[O-])cc21 (stereo not drawn)
GI50 [1]: > 100 µM (inactive) | GI50 [2]: 45.4 µM (inactive) | GI50 [3]: 25.1 µM (inactive) | GI50 [4]: 19.5 µM (inactive) | GI50 [5]: 16 µM (inactive) | GI50 [20]: 22.8 µM | GI50 [6]: 16.3 µM (inactive) | GI50 [7]: 27.2 µM (inactive) | GI50 [8]: 61.5 µM (inactive) | GI50 [9]: 22.4 µM (inactive) | GI50 [10]: 34.7 µM (inactive) | GI50 [11]: 17.3 µM (inactive) | GI50 [12]: 17.7 µM (inactive) | GI50 [13]: 27.7 µM (inactive) | GI50 [14]: 24.8 µM (inactive) | GI50 [15]: 34.8 µM (inactive) | GI50 [17]: 51.8 µM (inactive) | GI50 [18]: 46.5 µM (inactive) | GI50 [19]: 44.7 µM (inactive)

CC1(C)C(=NN=C(N)N)C(C)(C)C1=NN=C(N)N
GI50 [1]: > 100 µM (inactive) | GI50 [2]: > 100 µM (inactive) | GI50 [3]: > 100 µM (inactive) | GI50 [4]: > 100 µM (inactive) | GI50 [5]: > 100 µM (inactive) | GI50 [20]: > 100 µM | GI50 [6]: > 100 µM (inactive) | GI50 [7]: > 100 µM (inactive) | GI50 [8]: > 100 µM (inactive) | GI50 [9]: > 100 µM (inactive) | GI50 [10]: > 100 µM (inactive) | GI50 [11]: > 100 µM (inactive) | GI50 [12]: > 100 µM (inactive) | GI50 [14]: > 100 µM (inactive) | GI50 [15]: > 100 µM (inactive) | GI50 [16]: > 100 µM (inactive) | GI50 [17]: > 100 µM (inactive) | GI50 [18]: > 100 µM (inactive) | GI50 [19]: > 100 µM (inactive)

O=C1C(Cl)C(c2cc3cc(Br)ccc3nc2Cl)N1c1ccc(Cl)cc1 (stereo not drawn)
GI50 [1]: 8.43 µM (inactive) | GI50 [2]: 4.65 µM (inactive) | GI50 [3]: 5.31 µM (inactive) | GI50 [4]: 3.95 µM (inactive) | GI50 [5]: 3.43 µM (inactive) | GI50 [20]: 4.86 µM | GI50 [6]: 4.81 µM (inactive) | GI50 [7]: 7.16 µM (inactive) | GI50 [8]: 10.4 µM (inactive) | GI50 [9]: 5.13 µM (inactive) | GI50 [10]: 4.5 µM (inactive) | GI50 [11]: 4.56 µM (inactive) | GI50 [12]: 5.41 µM (inactive) | GI50 [13]: 4.16 µM (inactive) | GI50 [14]: 5.7 µM (inactive) | GI50 [15]: 0.815 µM (active) | GI50 [16]: 7.35 µM (inactive) | GI50 [18]: 10.7 µM (inactive) | GI50 [19]: 7.83 µM (inactive)

CC#C[P+](c1ccccc1)(c1ccccc1)c1ccccc1
GI50 [1]: 3.3 µM (inactive) | GI50 [2]: 1.6 µM (inactive) | GI50 [3]: 2.56 µM (inactive) | GI50 [4]: 0.284 µM (active) | GI50 [5]: 2.16 µM (inactive) | GI50 [20]: 2.66 µM | GI50 [6]: 2.76 µM (inactive) | GI50 [7]: 3.25 µM (inactive) | GI50 [8]: 7.91 µM (inactive) | GI50 [9]: 5.25 µM (inactive) | GI50 [10]: 3.99 µM (inactive) | GI50 [11]: 10.4 µM (inactive) | GI50 [12]: 3.09 µM (inactive) | GI50 [13]: 4.83 µM (inactive) | GI50 [14]: 2.06 µM (inactive) | GI50 [15]: 7.41 µM (inactive) | GI50 [17]: 0.861 µM (active) | GI50 [18]: 8.55 µM (inactive) | GI50 [19]: 2.43 µM (inactive)

Cc1nc2c(cc1OCc1ccccc1)C(=O)C1=C(C2=O)C2OC(=O)CC2OC1(C)C (stereo not drawn)
GI50 [1]: 2.49 µM (inactive) | GI50 [2]: 0.3 µM (active) | GI50 [3]: 0.28 µM (active) | GI50 [4]: 0.149 µM (active) | GI50 [5]: 0.375 µM (active) | GI50 [20]: 0.228 µM | GI50 [6]: 0.671 µM (active) | GI50 [7]: 0.375 µM (active) | GI50 [8]: 6.44 µM (inactive) | GI50 [9]: 0.349 µM (active) | GI50 [10]: 0.619 µM (active) | GI50 [11]: 0.474 µM (active) | GI50 [13]: 1.55 µM (inactive) | GI50 [14]: 0.944 µM (active) | GI50 [15]: 1.68 µM (inactive) | GI50 [16]: 0.322 µM (active) | GI50 [17]: 0.859 µM (active) | GI50 [18]: 0.973 µM (active) | GI50 [19]: 1.66 µM (inactive)

O=C(O)CCNS(=O)(=O)c1ccc([N+](=O)[O-])cc1
GI50 [1]: > 100 µM (inactive) | GI50 [2]: > 100 µM (inactive) | GI50 [4]: > 100 µM (inactive) | GI50 [5]: > 100 µM (inactive) | GI50 [20]: > 100 µM | GI50 [6]: > 100 µM (inactive) | GI50 [7]: > 100 µM (inactive) | GI50 [8]: > 100 µM (inactive) | GI50 [9]: > 100 µM (inactive) | GI50 [10]: > 100 µM (inactive) | GI50 [11]: > 100 µM (inactive) | GI50 [12]: > 100 µM (inactive) | GI50 [13]: > 100 µM (inactive) | GI50 [14]: > 100 µM (inactive) | GI50 [15]: 66.8 µM (inactive) | GI50 [16]: > 100 µM (inactive) | GI50 [17]: > 100 µM (inactive) | GI50 [18]: > 100 µM (inactive) | GI50 [19]: > 100 µM (inactive)
